Measurements: patent US8834549B2, “One-step phosphorylcholine-linked polymer coating and drug loading of stent” (Abbott Laboratories, priority 2007, dated 2014)

Assay: Total drug level on stents after ETO cycles by extraction and HPLC
Assay type: physicochemical
Settings: 5 stents with 1 ETO cycle, 5 stents with 3 ETO cycles
Experimental: Weighed 129 mg of ABT-578, a rapamycin derivative and 280 mg of phosphorylcholine-linked methacrylate terpolymer PC1036 and dissolved them in 10 ml of […] by shaking overnight protected from light. The solution was filtered through a 0.45 micron Teflon filter and the solution was added to the syringe reservoir of a semi-automated spray atomization gun coupled to a lathe-like device designed to hold stents, rotate them and translate them linearly in front of the spray gun. The equipment was programmed to spray enough solution in order to obtain about 10 micrograms of drug per linear mm of stent length, taking into account the losses of solution due to lack of contact with the stent as it is sprayed. After spraying, the stents were allowed to dry in air, followed by packaging them individually in glass vials sealed with an ETO permeable Tyvec membrane. The samples were sent out for ETO sterilization by one or three complete cycles.
Analysis was done of the total drug level from 5 stents that underwent 1 ETO cycle and 5 stents that underwent 3 ETO cycles using standard extraction and HPLC analysis.

CO[C@H]1C[C@@H]2CC[C@@H](C)[C@@](O)(O2)C(=O)C(=O)N2CCCC[C@H]2C(=O)O[C@H]([C@H](C)C[C@@H]2CC[C@H](n3cnnn3)[C@H](OC)C2)CC(=O)[C@H](C)/C=C(\C)[C@@H](O)[C@@H](OC)C(=O)[C@H](C)C[C@H](C)/C=C/C=C/C=C/1C [ABT-578]
stability of drug on stent to ETO cycles (total drug level, 3 cycles vs 1 cycle): stable to 3 ETO cycles
